In ChEMBL document CHEMBL3797117 (Bioorg Med Chem Lett, 2016):

What was measured:
[1] = molecular target: Aldo-keto reductase family 1 member B1 (Rattus norvegicus, UniProt P07943); test: Inhibition of ALR2 from rat lens using D,L-glyceraldehyde as substrate measured as absorption of NADPH for 4 mins by UV/vis spectrophotmetry
Brain = test: Reduction of MDA level in Wistar rat brain at 100 uM after 30 mins in presence of ascorbic acid by UV-vis spectrophotmetry relative to control; assay type: functional; details: 0.5 h
[2] = Antioxidant activity assessed as DPPH free radical scavenging activity at 100 uM after 40 mins by UV-Vis spectrophotometry; assay type: physicochemical
[3] = Antioxidant activity assessed as DPPH free radical scavenging activity at 100 uM after 30 mins under sunlight by UV-Vis spectrophotometry; assay type: physicochemical; details: 0.5 h
[4] = Antioxidant activity assessed as DPPH free radical scavenging activity after 30 mins under sunlight by UV-Vis spectrophotometry; assay type: physicochemical
[5] = Antioxidant activity assessed as DPPH free radical scavenging activity at 1 uM after 30 mins under sunlight by UV-Vis spectrophotometry; assay type: physicochemical; details: 0.5 h
[6] = Antioxidant activity assessed as DPPH free radical scavenging activity at 10 uM after 30 mins under sunlight by UV-Vis spectrophotometry; assay type: physicochemical; details: 0.5 h
[7] = Antioxidant activity assessed as DPPH free radical scavenging activity at 100 uM after 120 mins under sunlight by UV-Vis spectrophotometry; assay type: physicochemical; details: 2 h
[8] = Antioxidant activity assessed as DPPH free radical scavenging activity at 10 uM after 120 mins under sunlight by UV-Vis spectrophotometry; assay type: physicochemical; details: 2 h
[9] = Antioxidant activity assessed as DPPH free radical scavenging activity at 1 uM after 40 mins by UV-Vis spectrophotometry; assay type: physicochemical
[10] = Antioxidant activity assessed as DPPH free radical scavenging activity at 10 uM after 40 mins by UV-Vis spectrophotometry; assay type: physicochemical

| SMILES | IC50 [1] [µM] | inhibition at 100 µM (Brain) [%] | inhibition (INH) [2] [%] | other results |
| --- | --- | --- | --- | --- |
| COc1ccc(CN2CN(CC(=O)O)c3ccc(Br)cc3S2(=O)=O)cc1 | 7.2 | 2.6 | 6.2 |  |
| Cc1ccc2c(c1)S(=O)(=O)N(Cc1cc(O)ccc1F)CN2CC(=O)O | 4.8 | 14.1 | 32.3 |  |
| COc1ccc2c(c1)S(=O)(=O)N(Cc1ccccc1)CN2CC(=O)O | 13.6 | 42.3 | 53.1 |  |
| COc1ccc(F)c(CN2CN(CC(=O)O)c3ccc(Br)cc3S2(=O)=O)c1 | 1.8 | 9.55 | 44.3 |  |
| Cc1ccc2c(c1)S(=O)(=O)N(Cc1ccc(O)cc1)CN2CC(=O)O | 5.6 | 11 | 5.2 |  |
| CC(/C=C1\SC(=S)N(CC(=O)O)C1=O)=C\c1ccccc1 |  | 0 | 0 |  |
| COc1ccc(CN2CN(CC(=O)O)c3ccc(Cl)cc3S2(=O)=O)cc1 | 7.5 | 1.6 | 5.9 |  |
| COc1ccc(CN2CN(CC(=O)O)c3ccc(C)cc3S2(=O)=O)cc1 | 18.2 | 8.4 | 3.1 |  |
| COc1ccc(CN2CN(CC(=O)O)c3ccc(OC)cc3S2(=O)=O)cc1 | 11.2 | 31.5 | 40.6 |  |
| COc1ccc(F)c(CN2CN(CC(=O)O)c3ccc(C)cc3S2(=O)=O)c1 | 3.5 | 4.47 | 18.9 |  |
| O=C(O)CN1CN(Cc2ccc(O)cc2)S(=O)(=O)c2cc(O)ccc21 | 7.6 | 100 |  | inhibition (INH) [3]: 98%; EC50 [4]: 7.6 µM; inhibition (INH) [5]: 42.1%; inhibition (INH) [6]: 92.3% |
| O=C(O)CN1CN(Cc2ccccc2)S(=O)(=O)c2cc(O)ccc21 | 9.4 | 88 |  | inhibition (INH) [7]: 93.3%; inhibition (INH) [8]: 24.4% |
| Cc1c(C)c2c(c(C)c1O)CCC(C)(C(=O)O)O2 (stereo not drawn) [TROLOX] |  | 100 | 97 | inhibition (INH) [9]: 32%; inhibition (INH) [10]: 91.1% |
